Measured values published in patent publication US20060235013A1, “Tricyclic azole derivatives” (priority 2005, published 2006).

Legend:
Aurora A kinase = target: T1, Aurora A kinase (Homo sapiens, UniProt O14965); assay: IC50 determination for inhibitors of Aurora A (ELISA-type kinase assay, GST-Histone H3 substrate); format: biochemical; settings: mutant Aurora A kinase, 30 μM ATP, 40 minutes, read-out: IC50 Aurora A kinase inhibition
T1 sequence (O14965 1-403): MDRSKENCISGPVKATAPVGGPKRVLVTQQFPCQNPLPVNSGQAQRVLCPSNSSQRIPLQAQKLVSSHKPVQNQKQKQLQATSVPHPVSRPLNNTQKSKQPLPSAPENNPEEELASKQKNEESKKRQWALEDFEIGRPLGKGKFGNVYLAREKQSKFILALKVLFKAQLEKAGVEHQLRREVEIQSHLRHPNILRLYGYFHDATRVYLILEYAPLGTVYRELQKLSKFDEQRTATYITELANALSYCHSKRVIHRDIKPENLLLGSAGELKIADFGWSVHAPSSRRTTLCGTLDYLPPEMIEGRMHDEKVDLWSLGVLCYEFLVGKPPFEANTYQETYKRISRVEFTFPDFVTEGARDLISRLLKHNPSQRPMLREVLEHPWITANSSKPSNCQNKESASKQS
Method: IC50 Determination for Inhibitors of Aurora A
Aurora A is a serine threonine kinase involved in spindle assembly and chromosome segregation.
The assay is a typically ELISA-type assay where substrate (GST-Histone H3) is coupled to the assay-plate and is phosphorylated by the kinase. Phosphorylation is detected by a mouse anti-Phosphopeptid mAb and an HRP-labeled anti-mouse pAb. The assay is validated for IC50-determination.
Kinase activities were measured by Enzyme-Linked Immunosorbent Assay (ELISA): Maxisorp 384-well plates (Nunc) were coated with recombinant fusion protein comprising residues 1-15 of HistoneH3 fused to the N-terminus of Glutathione-S-Transferase. Plates were then blocked with a solution of 1 mg/mL I-block (a highly purified form of casein, Tropix cat. no. T2015) in phosphate-buffered saline. Kinase reactions were carried out in the wells of the ELISA plate by combining an appropriate amount of mutant Aurora A kinase with test compound and 30 μM ATP. The reaction buffer was 10× Kinase Buffer (Cell Signaling cat. no. 9802) supplemented with 1 μg/mL I-block. Reactions were stopped after 40 minutes by addition of 25 mM EDTA. After washing, substrate phosphorylation was detected by addition of anti-phospho-Histone H3 (Ser 10) 6G3 mAb (Cell Signaling cat. no. 9706) and sheep anti-mouse pAb-HRP (Amersham cat. no. NA931V), followed by colorimetric development with TMB (3,3′,5,5′-tetramethylbenzidine from Kirkegaard & Perry Laboratories). After readout of the adsorbance, IC50 values were calculated using a non-linear curve fit (XLfit software (ID Business Solution Ltd., Guilford, Surrey, UK)).

HCT 116 cells = assay: Viability assay in HCT 116 cells (CellTiter-Glo Luminescent Cell Viability Assay); format: cell-based; settings: HCT 116 human colon carcinoma cells, 5 days (120 h) incubation, ATP luminescence
Method: Viability Assay in HCT 116 Cells
A viability assay was performed using the CellTiter-Glo® Luminescent Cell Viability Assay (see Promega Corporation's Technical Bulletin No. 288, pp. 1-11 [revised February 2004] which is hereby incorporated by reference in its entirety). This assay is a homogeneous method of determining the number of viable cells in culture based on quantitation of the ATP present, an indicator of metabolically active cells. The assay is designed for use with multiwell formats, making it ideal for automated high-throughput screening (HTS), cell proliferation and cytotoxicity assays. The homogenous assay procedure involves adding a single reagent (containing luciferase, luciferan substrate, and buffer) directly to cells cultured in serum-supplemented medium. Cell washing, removal of medium and multiple pipetting steps are not required. The system detects as few as 15 cells/well in a 384-well format in 10 minutes after adding reagent and mixing.
The homogeneous “add-mix-measure” format results in cell lysis and generation of a luminescent signal proportional to the amount of ATP present. The amount of ATP is directly proportional to the number of cells present in culture. The above-referenced assay generates a “glow-type” luminescent signal, produced by the luciferase reaction, which has a half-life generally greater than five hours, depending on cell type and medium used. The extended half-life eliminates the need to use reagent injectors and provides flexibility for continuous or batch mode processing of multiple plates. The unique homogeneous format avoids errors that may be introduced by other ATP measurement methods that require multiple steps.
HCT 116 cells (human colon carcinoma, ATCC-No. CCl-247) were cultivated in RPMI 1640 medium with GlutaMAX™ I (cell culture media that contains L-Alanyl-L-Glutamine [a stabilized a form/source of L-Glutamine] from Invitrogen, Cat-No. 61870-010), 2.5% Fetal Calf Serum (FCS, Sigma Cat-No. F4135 (FBS)); 100 Units/ml penicillin/100 μg/ml streptomycin (=Pen/Strep from Invitrogen Cat. No. 15140). For the assay the cells were seeded in 384 well plates, 1000 cells per well, in the same medium. The next day the test compounds were added in various concentrations ranging from 30 μM to 0.0015 μM (10 concentrations, 1:3 diluted). After 5 days the viability assay was done according to the instructions of the manufacturer. In brief: the cell-plate was equilibrated to room temperature for approximately 30 minutes and then reagent (containing luciferase, luciferan substrate, and buffer) was added. The contents were carefully mixed for 15 minutes to induce cell lysis. After 45 minutes the luminescent signal was measured in Victor 2, (scanning multiwell spectrophotometer, Wallac).
Medium: RPMI 1640 with cell culture media containing L-Alanyl-L-Glutamine [GlutaMAX™ I (Invitrogen, Cat-No. 61870)], 5% FCS (Sigma Cat.-No. F4135), Pen/Strep (Invitrogen, Cat No. 15140).
HCT116 (ATCC-No. CCl-247): 1000 cells in 60 μl per well of 384 well plate (Greiner 781098, μClear-plate white)
After seeding incubate plates 24 h at 37° C., 5% CO2
2nd. Day: Induction (Treatment with Compounds, 10 Concentrations):
In order to achieve a final concentration of 30 μM as highest concentration 3.5 μl of 10 mM compound stock solution were added directly to 163 μl media. Then step (d) of the dilution procedure described below, was followed.
In order to achieve the second highest to the lowest concentrations, a serial dilution with dilution steps of 1:3 was followed according to the procedure (a-d) as described here below:
(a) for the second highest concentration add 10 μl of 10 mM stock solution of compound to 20 μl dimethylsulfoxide (DMSO)
(b) dilute 8×1:3 (always 10 μl to 20 μl DMSO) in this DMSO dilution row (results in 9 wells with concentrations from 3333.3 μM to 0.51 μM)
(c) dilute each concentration 1: 47.6 (3.5 μl compound dilution to 163 μl media)
(d) add 10 μl of every concentration to 60 μl media in the cell plate […]

Row | IC50 (Aurora A kinase) | IC50 (HCT 116 cells) | SMILES
1 | 14 nM | 100 to 2000 nM | CCN1C(=O)C(C)(C)c2cc3nc(-c4n[nH]c5c4CN(S(=O)(=O)c4ccc(F)cc4)CC5)[nH]c3cc21 [Example 17, 5-Ethyl-2-[5-(4-fluoro-benzenesulfonyl)-4,5,6,7-tetrahydro-1H-pyrazolo[4,3-c]pyridin-3-yl]-7,7-dimethyl-5,7-dihydro-3H-imidazo[4,5-f]indol-6-one]
2 | 16 nM | 100 to 2000 nM | CCN1C(=O)C(C)(C)c2cc3nc(-c4n[nH]c5c4COCC5)[nH]c3cc21 [Example 11, 5-Ethyl-7,7-dimethyl-2-(1,4,6,7-tetrahydro-pyrano[4,3-c]pyrazol-3-yl)-5,7-dihydro-3H-imidazo[4,5-f]indol-6-one]
3 | 12 nM | 108 nM | CC(C)N1C(=O)C(C)(C)c2cc3nc(-c4n[nH]c5c4CCCC5)[nH]c3cc21 [Example 9, 5-Isopropyl-7,7-dimethyl-2-(4,5,6,7-tetrahydro-1H-indazol-3-yl)-5,7-dihydro-3H-imidazo[4,5-f]indol-6-one]
4 | 55 nM | 100 to 2000 nM | CCN1C(=O)C(C)(C)c2cc3nc(-c4n[nH]c5c4CN(C(=O)c4ccc(F)cc4)CC5)[nH]c3cc21 [Example 16, 5-Ethyl-2-[5-(4-fluoro-benzoyl)-4,5,6,7-tetrahydro-1H-pyrazolo[4,3-c]pyridin-3-yl]-7,7-dimethyl-5,7-dihydro-3H-imidazo[4,5-f]indol-6-one]
